Where two headings read alike, the source gives them in different places.
Experiments:
VIM-1 = VIM-1 (Pseudomonas aeruginosa (strain ATCC 15692 / DSM 22644 / CIP 104116 / JCM 14847 / LMG 12228 / 1C / PRS 101 / PAO1), UniProt A0A0F7KYQ8); experiment: Enzyme activity: determination of IC50, fluorescence assay with CCF2-FA substrate (VIM-1); type: biochemical
NDM-1 = NDM-1 (Klebsiella pneumoniae, UniProt C7C422); experiment: biochemical; type: biochemical; details: read-out: NDM-1 IC50
IMP-1 = IMP-1 (Serratia marcescens, UniProt P52699); experiment: biochemical; type: biochemical; details: read-out: IMP-1 IC50
[1] = system: Escherichia coli expressing NDM-1 (CLB30016); experiment: Antibiotic potentiation activity: synergistic concentration (MITC95) with imipenem, OD600 growth; type: cell-based
How it was run: (§1)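 Each strain, suspended in saline from overnight colonies and diluted 1:100 into 1.1× CAMHB, is dosed with imipenem at 4 μg/ml (or 1 μg/ml) plus compound, incubated 22–24 h at 35 °C and read by absorbance.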

[2] = system: Serratia marcescens expressing IMP-1 (CL5741); experiment: as above; type: cell-based
How it was run: as §1

[3] = system: Klebsiella pneumoniae expressing VIM-1 (IHMA599644); experiment: as above; type: cell-based
How it was run: as §1

[4] = VIM-1 IC50, fluorescence assay with CCF2-FA substrate
[5] = fluorescence assay with CCF2-FA substrate
[6] = CLB30016 (NDM-1), 95% inhibition of bacterial growth
[7] = CL5741 (IMP-1), 95% inhibition of bacterial growth
[8] = IHMA599644 (VIM-1), 95% inhibition of bacterial growth
[9] = VIM-1 IC50, VIM-1 enzyme, CCF2-FA fluorescence assay
[10] = NDM-1 enzyme, CCF2-FA fluorescence assay
[11] = IMP-1 enzyme, CCF2-FA fluorescence assay
[12] = Escherichia coli expressing NDM-1 (CLB30016), 95% growth inhibition
[13] = Serratia marcescens expressing IMP-1 (CL5741), 95% growth inhibition
[14] = Klebsiella pneumoniae expressing VIM-1 (IHMA599644), 95% growth inhibition
[15] = VIM-1 IC50, VIM-1 enzyme, CCF2-FA substrate
[16] = NDM-1 enzyme, CCF2-FA substrate
[17] = IMP-1 enzyme, CCF2-FA substrate
[18] = (CLB30016, NDM-1), 95% growth inhibition
[19] = Serratia marcescens CL5741 (IMP-1), 95% growth inhibition
[20] = Klebsiella pneumoniae IHMA599644 (VIM-1), 95% growth inhibition
[21] = VIM-1 enzyme, CCF2-FA substrate, read-out: VIM-1 IC50
[22] = VIM-1 enzyme, CCF2-FA fluorescence assay, read-out: VIM-1 IC50
[23] = fluorescence assay with CCF2-FA substrate, read-out: VIM-1 IC50
[24] = concentration giving 95% inhibition of bacterial growth

Chain of NDM-1 (C7C422 whole entry, looked up, species assumed): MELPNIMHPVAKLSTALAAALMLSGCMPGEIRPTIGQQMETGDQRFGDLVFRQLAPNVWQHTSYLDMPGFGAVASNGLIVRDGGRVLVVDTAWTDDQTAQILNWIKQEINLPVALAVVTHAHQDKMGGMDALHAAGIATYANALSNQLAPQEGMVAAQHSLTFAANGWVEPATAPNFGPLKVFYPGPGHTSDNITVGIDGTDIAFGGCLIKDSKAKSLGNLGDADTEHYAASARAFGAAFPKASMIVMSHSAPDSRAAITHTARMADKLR
Chain of IMP-1 (P52699 whole entry, looked up): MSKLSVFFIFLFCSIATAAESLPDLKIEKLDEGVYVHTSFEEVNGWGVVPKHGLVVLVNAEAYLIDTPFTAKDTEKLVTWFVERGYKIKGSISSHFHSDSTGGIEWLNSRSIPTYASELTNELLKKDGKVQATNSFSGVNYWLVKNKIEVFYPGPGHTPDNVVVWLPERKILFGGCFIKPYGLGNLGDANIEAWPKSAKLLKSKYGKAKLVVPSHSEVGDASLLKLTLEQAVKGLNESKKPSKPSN

## NS(=O)(=O)c1c(C(F)(F)F)ccc(-c2ccc(C3CCNCC3)nc2)c1-c1nnn[nH]1 [Example 744, 3-(6-piperidin-4-ylpyridin-3-yl)-2-(1H-tetrazol-5-yl)-6-(trifluoromethyl)benzenesulfon-amide]
VIM-1; [4]
  IC50: 0.907 nM
NDM-1; [5]
  IC50: 16.3 nM
IMP-1; [5]
  IC50: 18.1 nM
[1]; [6]
  Escherichia coli MITC95: 6.25 µM
[2]; [7]
  Serratia marcescens MITC95: 12.5 µM
[3]; [8]
  Klebsiella pneumoniae MITC95: 12.5 µM

## N=CNCc1ccc(-c2ccc(Br)c(S(N)(=O)=O)c2-c2nn[nH]n2)cc1 [Example 425, N-((4′-bromo-3′-sulfamoyl-2′-(2H-tetrazol-5-yl)-[1,1′-biphenyl]-4-yl)methyl)formimidamide]
VIM-1; [9]
  IC50: 4.07 nM
NDM-1; [10]
  IC50: 13.5 nM
IMP-1; [11]
  IC50: 15.9 nM
[1]; [12]
  Escherichia coli MITC95: 0.3906 µM
[2]; [13]
  Serratia marcescens MITC95: 0.5859 µM
[3]; [14]
  Klebsiella pneumoniae MITC95: 1.563 µM

## NS(=O)(=O)c1c(C(F)(F)F)ccc([C@H]2CC[C@H](NC3CCCNC3)CC2)c1-c1nnn[nH]1 (stereo partly drawn) [Example 697, 3-[4-(piperidin-3-ylamino)cyclohexyl]-2-(1H-tetrazol-5-yl)-6-(trifluoromethyl)benzene sulfonamide]
VIM-1; [15]
  IC50: 6.33 nM
NDM-1; [16]
  IC50: 1.61 nM
IMP-1; [17]
  IC50: 6.42 nM
[1]; [18]
  Escherichia coli MITC95: 0.7813 µM
[2]; [19]
  Serratia marcescens MITC95: 3.125 µM
[3]; [20]
  Klebsiella pneumoniae MITC95: 6.25 µM

## Nc1nc2cc(C(F)(F)F)cc(-c3ccc(C(F)(F)F)c(S(N)(=O)=O)c3-c3nnn[nH]3)c2[nH]1 [Example 567]
VIM-1; [21]
  IC50: 0.225 nM
NDM-1; [16]
  IC50: 0.299 nM
IMP-1; [17]
  IC50: 3.77 nM
[1]; [18]
  Escherichia coli MITC95: 3.125 µM
[2]; [19]
  Serratia marcescens MITC95: 6.25 µM
[3]; [20]
  Klebsiella pneumoniae MITC95: 6.25 µM

## NC1Cc2ccc(-c3ccc(C(F)(F)F)c(S(N)(=O)=O)c3-c3nn[nH]n3)cc2C1 (stereo not drawn) [Example 442, 3-(2-amino-2,3-dihydro-1H-inden-5-yl)-2-(2H-tetrazol-5-yl)-6-(trifluoromethyl)benzenesulfonamide]
VIM-1; [22]
  IC50: 0.268 nM
NDM-1; [10]
  IC50: 11.8 nM
IMP-1; [11]
  IC50: 16.5 nM
[1]; [12]
  Escherichia coli MITC95: 1.172 µM
[2]; [13]
  Serratia marcescens MITC95: 0.5859 µM
[3]; [14]
  Klebsiella pneumoniae MITC95: 0.7813 µM

## NS(=O)(=O)c1c(C(F)(F)F)ccc(C2CCNc3ccccc32)c1-c1nnn[nH]1 (stereo not drawn) [Example 493, 3-(1,2,3,4-Tetrahydroquinolin-4-yl)-2-(1H-tetrazol-5-yl)-6-(trifluoromethyl)benzenesulfonamide]
VIM-1; [21]
  IC50: 0.133 nM
NDM-1; [16]
  IC50: 1.69 nM
IMP-1; [17]
  IC50: 4.5 nM
[1]; [18]
  Escherichia coli MITC95: 1.563 µM
[2]; [19]
  Serratia marcescens MITC95: 0.3906 µM
[3]; [20]
  Klebsiella pneumoniae MITC95: 3.125 µM

## NS(=O)(=O)c1c(C(F)(F)F)ccc(NC2(C3CCNC3)CC2)c1-c1nnn[nH]1 (stereo not drawn) [Example 777, 3-[(1-pyrrolidin-3-ylcyclopropyl)amino]-2-(1H-tetrazol-5-yl)-6-(trifluoromethyl) benzenesulfonamide]
VIM-1; [23]
  IC50: 6.73 nM
NDM-1; [5]
  IC50: 23.3 nM
IMP-1; [5]
  IC50: 51.3 nM
[1]; [6]
  Escherichia coli MITC95: 12.5 µM
[2]; [7]
  Serratia marcescens MITC95: 12.5 µM
[3]; [8]
  Klebsiella pneumoniae MITC95: 6.25 µM

## NC1(c2ccc(-c3ccc(C(F)(F)F)c(S(N)(=O)=O)c3-c3nn[nH]n3)cc2)CCNCC1 [Example 436, 4′-(4-aminopiperidin-4-yl)-2-(2H-tetrazol-5-yl)-4-(trifluoromethyl)-[1,1′-biphenyl]-3-sulfonamide]
VIM-1; [22]
  IC50: 3.04 nM
NDM-1; [10]
  IC50: 9.32 nM
IMP-1; [11]
  IC50: 12.8 nM
[1]; [12]
  Escherichia coli MITC95: 0.375 µM
[2]; [13]
  Serratia marcescens MITC95: 0.2552 µM
[3]; [14]
  Klebsiella pneumoniae MITC95: 0.8542 µM

## COCc1cc(CCc2ccc(C(F)(F)F)c(S(N)(=O)=O)c2-c2nn[nH]n2)cnc1N [Example 512, 3-(2-(6-Amino-5-(methoxymethyl)pyridin-3-yl)ethyl)-2-(2H-tetrazol-5-yl)-6-(trifluoromethyl)benzenesulfonamide]
VIM-1; [21]
  IC50: 3.9 nM
NDM-1; [16]
  IC50: 162 nM
IMP-1; [17]
  IC50: 46 nM
[1]; [18]
  Escherichia coli MITC95: 9.375 µM
[2]; [19]
  Serratia marcescens MITC95: 0.9766 µM
[3]; [20]
  Klebsiella pneumoniae MITC95: 2.344 µM

## NCc1ncc(CCc2ccc(C(F)(F)F)c(S(N)(=O)=O)c2-c2nn[nH]n2)cc1N [Example 513, 3-(2-(5-Amino-6-(aminomethyl)pyridin-3-yl)ethyl)-2-(2H-tetrazol-5-yl)-6-(trifluoromethyl)benzenesulfonamide]
VIM-1; [21]
  IC50: 1.18 nM
NDM-1; [16]
  IC50: 9.35 nM
IMP-1; [17]
  IC50: 3.61 nM
[1]; [18]
  Escherichia coli MITC95: 12.5 µM
[2]; [19]
  Serratia marcescens MITC95: 9.375 µM
[3]; [20]
  Klebsiella pneumoniae MITC95: 9.375 µM

## N=C(N)N1CCC2(CCC(c3ccc(C(F)(F)F)c(S(N)(=O)=O)c3-c3nnn[nH]3)CC2)CC1 [Example 826, 9-[3-sulfamoyl-2-(1H-tetrazol-5-yl)-4-(trifluoromethyl)phenyl]-3-azaspiro[5.5]undecane-3-carboxamidine]
VIM-1; [4]
  IC50: 1.36 nM
NDM-1; [5]
  IC50: 0.491 nM
IMP-1; [5]
  IC50: 1.45 nM
[1]; [6]
  Escherichia coli MITC95: 1.563 µM
[2]; [7]
  Serratia marcescens MITC95: 3.125 µM
[3]; [8]
  Klebsiella pneumoniae MITC95: 25 µM

## NS(=O)(=O)c1c(-c2ccc(C3CCNCC3)cc2)ccc(-c2ccc(C3CCNCC3)cc2)c1-c1nn[nH]n1 [Example 430, 3,6-bis[4-(4-piperidyl)phenyl]-2-(2H-tetrazol-5-yl)benzenesulfonamide]
VIM-1; [9]
  IC50: 50.8 nM
NDM-1; [10]
  IC50: 52.3 nM
IMP-1; [11]
  IC50: 6.38 nM
[1]; [12]
  Escherichia coli MITC95: 1.563 µM
[2]; [13]
  Serratia marcescens MITC95: 0.3906 µM
[3]; [14]
  Klebsiella pneumoniae MITC95: 3.125 µM

## NS(=O)(=O)c1nccc(N2CCC(c3cnc4n3CCCC4)CC2)c1-c1nnn[nH]1 [Example 225, 4-[4-(5,6,7,8-tetrahydroimidazo[1,2-a]pyridin-3-yl)piperidin-1-yl]-3-(1H-tetrazol-5-yl)pyridine-2-sulfonamide]
VIM-1; [23]
  IC50: 226 nM
NDM-1; [5]
  IC50: 142 nM
IMP-1; [5]
  IC50: 76.2 nM
[1]; [24]
  Escherichia coli expressing NDM-1 (CLB 30016) MITC95: 9.375 µM
[2]; [24]
  Serratia marcescens expressing IMP-1 (CL5741) MITC95: 2.344 µM
[3]; [24]
  Klebsiella pneumoniae expressing VIM-1 (IHMA 599644) MITC95: 50 µM

## NS(=O)(=O)c1c(C(F)(F)F)ccc(-c2cccc3ncccc23)c1-c1nn[nH]n1 [Example 486, 3-(Quinolin-5-yl)-2-(2H-tetrazol-5-yl)-6-(trifluoromethyl)benzenesulfonamide]
VIM-1; [22]
  IC50: 0.134 nM
NDM-1; [10]
  IC50: 0.192 nM
IMP-1; [11]
  IC50: 1.19 nM
[1]; [12]
  Escherichia coli MITC95: 1.208 µM
[2]; [13]
  Serratia marcescens MITC95: 0.1367 µM
[3]; [14]
  Klebsiella pneumoniae MITC95: 4.531 µM

## NS(=O)(=O)c1c(C(F)(F)F)ccc(-c2cccc3c2OCCN3)c1-c1nnn[nH]1 [Example 724, 3-(3,4-dihydro-2H-1,4-benzoxazin-8-yl)-2-(1H-tetrazol-5-yl)-6-(trifluoromethyl)benzenesulfon-amide]
VIM-1; [21]
  IC50: 0.862 nM
NDM-1; [16]
  IC50: 1.15 nM
IMP-1; [17]
  IC50: 2.44 nM
[1]; [18]
  Escherichia coli MITC95: 6.25 µM
[2]; [19]
  Serratia marcescens MITC95: 6.25 µM
[3]; [20]
  Klebsiella pneumoniae MITC95: 12.5 µM

## NC1(CN2CCC(c3ccc(-c4ccc(C(F)(F)F)c(S(N)(=O)=O)c4-c4nnn[nH]4)cc3)CC2)CC1 [Example 672, 4′-{1-[(1-aminocyclopropyl)methyl]piperidin-4-yl}-2-(1H-tetrazol-5-yl)-4-(trifluoromethyl)biphenyl-3-sulfonamide]
VIM-1; [15]
  IC50: 3.38 nM
NDM-1; [16]
  IC50: 3.66 nM
IMP-1; [17]
  IC50: 2.51 nM
[1]; [18]
  Escherichia coli MITC95: 6.25 µM
[2]; [19]
  Serratia marcescens MITC95: 4.688 µM
[3]; [20]
  Klebsiella pneumoniae MITC95: 75 µM

## NS(=O)(=O)c1c(C(F)(F)F)ccc([C@H]2CC[C@H](NC3CCC4(CCNCC4)CC3)CC2)c1-c1nnn[nH]1 [Example 689, 3-[4-(3-azaspiro[5.5]undec-9-ylamino)cyclohexyl]-2-(1H-tetrazol-5-yl)-6-(trifluoromethyl)benzene sulfonamide]
VIM-1; [21]
  IC50: 6.43 nM
NDM-1; [16]
  IC50: 26.8 nM
IMP-1; [17]
  IC50: 52.1 nM
[1]; [18]
  Escherichia coli MITC95: 6.25 µM
[2]; [19]
  Serratia marcescens MITC95: 6.25 µM
[3]; [20]
  Klebsiella pneumoniae MITC95: 12.5 µM

## NCCCN1CC(c2ccc(-c3ccc(C(F)(F)F)c(S(N)(=O)=O)c3-c3nnn[nH]3)cc2)C1 [Example 816, 4′-[1-(3-aminopropyl)azetidin-3-yl]-2-(1H-tetrazol-5-yl)-4-(trifluoromethyl)biphenyl-3-sulfonamide]
VIM-1; [23]
  IC50: 13.5 nM
NDM-1; [5]
  IC50: 6.62 nM
IMP-1; [5]
  IC50: 16.3 nM
[1]; [6]
  Escherichia coli MITC95: 1.563 µM
[2]; [7]
  Serratia marcescens MITC95: 6.25 µM
[3]; [8]
  Klebsiella pneumoniae MITC95: 12.5 µM
